Measurements from ChEMBL document CHEMBL4251612, “Naturally occurring Diels-Alder-type adducts from Morus nigra as potent inhibitors of Mycobacterium tuberculosis protein tyrosine phosphatase B” (Eur J Med Chem, 2018).
In brackets after ≈: the same amount, converted by molar mass. Activity calls are given as the source filed them. The rule behind the calls is not given here.

Columns and labels:
[1] = target: T1, Phosphotyrosine protein phosphatase (Mycobacterium tuberculosis, UniProt A0A045ISB3); experiment: Inhibition of Mycobacterium tuberculosis PtpB using p-nitrophenyl phosphate as substrate preincubated for 10 mins followed by substrate addition measured every minute for 10 mins by UV-VIS spectrophotometric analysis
T1 sequence (A0A045ISB3 whole entry): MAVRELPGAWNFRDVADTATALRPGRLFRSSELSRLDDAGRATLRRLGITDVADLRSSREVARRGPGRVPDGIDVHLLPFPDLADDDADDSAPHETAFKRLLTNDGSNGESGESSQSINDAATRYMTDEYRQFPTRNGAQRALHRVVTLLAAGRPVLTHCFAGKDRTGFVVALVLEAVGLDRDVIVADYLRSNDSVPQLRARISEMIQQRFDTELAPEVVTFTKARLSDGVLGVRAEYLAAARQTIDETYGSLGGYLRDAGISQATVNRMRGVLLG

[2] = target: T2, Low molecular weight protein-tyrosine phosphatase A (Mycobacterium tuberculosis, UniProt P9WIA1); experiment: Inhibition of Mycobacterium tuberculosis PtpA using p-nitrophenyl phosphate as substrate preincubated for 10 mins followed by substrate addition measured every minute for 10 mins by UV-VIS spectrophotometric analysis
T2 sequence (P9WIA1 whole entry): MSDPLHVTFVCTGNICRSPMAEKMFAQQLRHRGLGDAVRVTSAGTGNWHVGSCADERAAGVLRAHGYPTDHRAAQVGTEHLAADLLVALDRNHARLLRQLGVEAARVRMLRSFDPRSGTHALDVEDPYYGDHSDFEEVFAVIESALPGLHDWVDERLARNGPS

[3] = target: T3, Tyrosine-protein phosphatase non-receptor type 1 (Homo sapiens, UniProt P18031); experiment: Inhibition of human PTP1B using p-nitrophenyl phosphate as substrate preincubated for 10 mins followed by substrate addition measured every minute for 10 mins by UV-VIS spectrophotometric analysis
T3 sequence (P18031 whole entry): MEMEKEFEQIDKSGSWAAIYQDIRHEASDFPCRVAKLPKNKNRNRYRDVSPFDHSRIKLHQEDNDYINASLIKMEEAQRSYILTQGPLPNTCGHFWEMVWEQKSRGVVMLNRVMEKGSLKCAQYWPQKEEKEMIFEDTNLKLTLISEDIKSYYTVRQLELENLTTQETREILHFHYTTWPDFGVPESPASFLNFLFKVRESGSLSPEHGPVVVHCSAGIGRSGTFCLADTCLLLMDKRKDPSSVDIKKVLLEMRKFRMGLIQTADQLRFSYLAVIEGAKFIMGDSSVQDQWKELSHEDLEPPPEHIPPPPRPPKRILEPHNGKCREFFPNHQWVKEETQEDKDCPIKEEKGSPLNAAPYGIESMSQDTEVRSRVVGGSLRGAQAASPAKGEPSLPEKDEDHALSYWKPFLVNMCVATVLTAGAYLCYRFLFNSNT

[4] = target: T4, Tyrosine-protein phosphatase non-receptor type 22 (Homo sapiens, UniProt Q9Y2R2); experiment: Inhibition of LYP (unknown origin) using p-nitrophenyl phosphate as substrate preincubated for 10 mins followed by substrate addition measured every minute for 10 mins by UV-VIS spectrophotometric analysis
T4 sequence (Q9Y2R2 whole entry): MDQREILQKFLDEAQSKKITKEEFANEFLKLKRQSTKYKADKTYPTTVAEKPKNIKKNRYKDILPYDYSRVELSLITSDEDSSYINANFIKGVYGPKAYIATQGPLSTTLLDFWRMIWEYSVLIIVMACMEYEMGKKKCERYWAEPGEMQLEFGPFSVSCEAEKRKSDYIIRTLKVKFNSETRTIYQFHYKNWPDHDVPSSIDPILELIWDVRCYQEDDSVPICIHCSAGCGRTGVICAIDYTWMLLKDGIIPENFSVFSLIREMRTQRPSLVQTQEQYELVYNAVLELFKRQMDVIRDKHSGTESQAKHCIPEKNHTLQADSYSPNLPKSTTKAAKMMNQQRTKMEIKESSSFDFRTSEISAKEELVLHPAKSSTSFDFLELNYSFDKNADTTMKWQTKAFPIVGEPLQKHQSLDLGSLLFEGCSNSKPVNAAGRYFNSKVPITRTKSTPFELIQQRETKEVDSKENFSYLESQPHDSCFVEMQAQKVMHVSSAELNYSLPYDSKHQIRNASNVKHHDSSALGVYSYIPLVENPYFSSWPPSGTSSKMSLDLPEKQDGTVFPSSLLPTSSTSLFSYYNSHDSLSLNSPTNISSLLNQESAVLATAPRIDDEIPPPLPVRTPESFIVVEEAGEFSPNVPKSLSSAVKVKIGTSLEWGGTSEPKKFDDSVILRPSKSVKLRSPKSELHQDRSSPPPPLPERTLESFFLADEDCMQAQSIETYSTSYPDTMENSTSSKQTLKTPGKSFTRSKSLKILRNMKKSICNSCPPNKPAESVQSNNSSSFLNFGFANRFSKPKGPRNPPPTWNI

[5] = target: T5, Tyrosine-protein phosphatase non-receptor type 12 (Homo sapiens, UniProt Q05209); experiment: Inhibition of PTP-PEST (unknown origin) using p-nitrophenyl phosphate as substrate preincubated for 10 mins followed by substrate addition measured every minute for 10 mins by UV-VIS spectrophotometric analysis
T5 sequence (Q05209 whole entry): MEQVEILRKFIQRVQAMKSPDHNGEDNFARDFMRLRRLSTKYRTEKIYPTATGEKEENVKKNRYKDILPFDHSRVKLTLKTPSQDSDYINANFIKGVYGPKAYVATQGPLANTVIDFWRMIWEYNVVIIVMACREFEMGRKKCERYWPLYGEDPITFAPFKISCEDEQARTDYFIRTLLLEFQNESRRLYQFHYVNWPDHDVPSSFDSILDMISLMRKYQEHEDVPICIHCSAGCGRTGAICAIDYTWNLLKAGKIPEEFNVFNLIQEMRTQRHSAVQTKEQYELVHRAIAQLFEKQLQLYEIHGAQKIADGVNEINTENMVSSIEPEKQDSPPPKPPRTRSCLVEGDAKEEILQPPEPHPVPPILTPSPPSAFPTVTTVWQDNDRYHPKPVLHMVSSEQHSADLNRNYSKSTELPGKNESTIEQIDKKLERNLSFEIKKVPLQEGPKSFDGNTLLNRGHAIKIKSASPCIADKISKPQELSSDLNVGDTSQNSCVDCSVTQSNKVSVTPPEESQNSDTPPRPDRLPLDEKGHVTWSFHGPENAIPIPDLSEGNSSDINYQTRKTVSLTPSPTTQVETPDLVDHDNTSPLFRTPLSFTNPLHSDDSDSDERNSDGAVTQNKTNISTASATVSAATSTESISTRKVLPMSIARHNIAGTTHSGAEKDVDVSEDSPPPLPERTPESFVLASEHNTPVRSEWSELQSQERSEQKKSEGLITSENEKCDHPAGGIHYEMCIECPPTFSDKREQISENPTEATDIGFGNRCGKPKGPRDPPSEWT

[6] = target: T6, Phosphotyrosine protein phosphatase (Mycobacterium tuberculosis) (UniProt A0A045ISB3); experiment: Competitive inhibition of Mycobacterium tuberculosis PtpB using p-nitrophenyl phosphate as substrate up to 0.3 uM preincubated for 10 mins followed by substrate addition measured every minute for 10 mins by Michaelis-Menten plot analysis
T6 sequence (whole entry): T1 sequence (A0A045ISB3 whole entry)

[7] = target: T1, Phosphotyrosine protein phosphatase; experiment: Inhibition of Mycobacterium tuberculosis PtpB using p-nitrophenyl phosphate as substrate preincubated for 10 mins followed by substrate addition measured every minute for 10 mins by Michaelis-Menten plot analysis
[8] = target: T6, Phosphotyrosine protein phosphatase (Mycobacterium tuberculosis); experiment: Reversible inhibition of Mycobacterium tuberculosis PtpB using p-nitrophenyl phosphate as substrate assessed as enzyme recovery at 10 times IC50 preincubated for 10 mins followed by 100-fold dilution; design: scale not given: the % may be the effect or the level left
[9] = target: T6, Phosphotyrosine protein phosphatase (Mycobacterium tuberculosis); experiment: Binding affinity to Mycobacterium tuberculosis PtpB assessed as Stern-Volmer quenching constant by UV-VIS spectrophotometric analysis
[10] = target: T1, Phosphotyrosine protein phosphatase; experiment: Binding affinity to Mycobacterium tuberculosis PtpB by UV-VIS spectrophotometric analysis
[11] = system: Mycobacterium tuberculosis; experiment: Antitubercular activity against Mycobacterium tuberculosis H37Ra ATCC 25177 after 7 days by resazurin microtiter assay; format: functional; conditions: H37Ra ATCC 25177, 168 h
[12] = Cytotoxicity against human THP1 cells after 72 hrs by MTT assay; format: cell-based; conditions: THP-1 cells
[13] = system: Mycobacterium tuberculosis; experiment: Antitubercular activity against Mycobacterium tuberculosis H37Ra ATCC 25177 infected in human THP1 cells assessed as reduction in CFU at 13.2 uM after 72 hrs; format: functional, organism-based
[14] = target: T6, Phosphotyrosine protein phosphatase (Mycobacterium tuberculosis); experiment: Time independent inhibition of Mycobacterium tuberculosis PtpB at 0.2 uM pre-incubated for 0 to 10 mins before p-nitrophenyl phosphate substrate addition
[15] = target: T6, Phosphotyrosine protein phosphatase (Mycobacterium tuberculosis); experiment: Binding affinity to Mycobacterium tuberculosis PtpB assessed as fluorescence quenching at 0.1 to 3.8 uM by spectropolarimetry
[16] = target: T6, Phosphotyrosine protein phosphatase (Mycobacterium tuberculosis); experiment: Binding affinity to Mycobacterium tuberculosis PtpB assessed as binding constant by fluorescence based assay
[17] = target: T1, Phosphotyrosine protein phosphatase; experiment: Binding affinity to Mycobacterium tuberculosis PtpB by fluorescence based assay
[18] = target: T6, Phosphotyrosine protein phosphatase (Mycobacterium tuberculosis); experiment: Binding affinity to Mycobacterium tuberculosis PtpB assessed as sequence coverage level at 100 uM preincubated for 10 mins before trypsin addition by mass spectrometry based peptide mass fingerprint assay (reference value: 92%)
[19] = target: T6, Phosphotyrosine protein phosphatase (Mycobacterium tuberculosis); experiment: Binding affinity to Mycobacterium tuberculosis PtpB assessed as protection against proteolytic cleavage at 100 to 400 uM preincubated for 10 mins before trypsin addition by mass spectrometry

| SMILES | IC50 [1] | IC50 [2] | IC50 [3] | IC50 [4] | IC50 [5] | inhibition [6] | Ki [7] | Activity [8] | Ka [9] | Kd [10] | MIC [11] | CC50 at 72 h [12] | Activity [13] | inhibition [14] | Activity [15] | Ka [16] | Kd [17] | Activity [18] | Activity [19] | Ki [1] |
| --- | --- | --- | --- | --- | --- | --- | --- | --- | --- | --- | --- | --- | --- | --- | --- | --- | --- | --- | --- | --- |
| CC(C)=CCc1c(O)ccc(C(=O)[C@@H]2[C@@H](c3ccc(O)cc3O)CC(C)=C[C@H]2c2c(O)cc(O)c3c(=O)c(CC=C(C)C)c(-c4ccc(O)cc4O)oc23)c1O | 0.36 µM | 1.49 µM | 2.54 µM | 11.8 µM | 5.22 µM | Active | 0.2 µM | 40% | 1 ×10⁶ /M | 1 µM | 32 µg/mL (≈ 42.1 µM) | 20.2 µg/mL (≈ 26.6 µM) | inactive | Active | Active | 1.2 ×10⁶ /M | 0.85 µM | 93% | Active | – |
| CC(C)=CCc1c(-c2ccc(O)cc2O)oc2c3c(cc(O)c2c1=O)OC(C)(C)C=C3 [MORUSIN] | 5.26 µM | 4.65 µM | 10.3 µM | 15 µM | > 100 µM | – | – | – | – | – | – | – | – | – | – | – | – | – | – | – |
| CC(C)=CCc1c(O)ccc(C(=O)[C@H]2[C@@H](c3c(O)cc(-c4cc5ccc(O)cc5o4)cc3O)C=C(C)C[C@@H]2c2ccc(O)cc2O)c1O [CHALCOMORACIN] | 1.43 µM | 2.43 µM | 1.94 µM | 7.29 µM | 8.52 µM | – | – | – | – | – | – | – | – | – | – | – | – | – | – | – |
| O=c1cc(-c2ccc(O)cc2O)oc2cc(O)cc(O)c12 [NORARTOCARPETIN] | 1.2 µM | 12 µM | 5.18 µM | 30.3 µM | 20.9 µM | – | – | – | – | – | – | – | – | – | – | – | – | – | – | – |
| CC(C)=CCc1c(O)ccc(C(=O)[C@H]2[C@@H](c3c(O)cc(/C=C/c4ccc(O)cc4O)cc3O)C=C(C)C[C@@H]2c2ccc(O)cc2O)c1O | 1.9 µM | – | – | – | – | – | – | – | – | – | – | – | – | – | – | – | – | – | – | 1.6 µM |
